Results taken from patent publication US11052092B2, “N-{[2-(piperidin-1-yl)phenyl](phenyl)methyl}-2-(3-oxo-3,4-dihydro-2H-1,4-benzoxazin-7-yl)acetamide derivatives and related compounds as ROR-gamma modulators for treating autoimmune diseases” (Genfit, priority 2017, dated 2021).
Counter-ions that a name gives are not always drawn.

melting point [°C]	SMILES
85	Cc1ccc(C(NC(=O)Cc2ccc3c(c2)CS(=O)(=O)N3CC2CCOCC2)c2ccc(C)o2)c(N2CCCCC2)c1 (stereo not shown) (as salt: HCl) [Cpd. 167, N-{[4-methyl-2-(piperidin-1-yl)phenyl](5-methylfuran-2-yl)methyl}-2-[1-(oxan-4-ylmethyl)-2,2-dioxo-1,3-dihydro-2,1-benzothiazol-5-yl]acetamide]
105	Cc1ccc(C(NC(=O)C2(c3ccc4c(c3)OCS(=O)(=O)N4)CC2)c2ccc(C)o2)c(N(C)C)c1 (stereo not shown) (as salt: HCl) [Cpd. 148, N-{[2-(dimethylamino)-4-methylphenyl](5-methylfuran-2-yl)methyl}-1-(2,2-dioxo-1,3-dihydro-4,2,1-benzoxathiazin-6-yl)cyclopropane-1-carboxamide]
62	Cc1ccc(C(NC(=O)C2(c3ccc4[nH]ccc4c3)CC2)c2ccc(C)o2)c(C)c1 (stereo not shown) (as salt: HCl) [Cpd. 108, N-[(2,4-dimethylphenyl)(5-methylfuran-2-yl)methyl]-1-(1H-indol-5-yl)cyclopropane-1-carboxamide]
67	Cc1ccc(C(NC(=O)Cc2ccc3c(ccn3CC3CCOCC3)c2)c2ccc(C)o2)c(N2CCCCC2)c1 (stereo not shown) (as salt: sodium) [Cpd. 113, N-{[4-methyl-2-(piperidin-1-yl)phenyl](5-methylfuran-2-yl)methyl}-2-[1-(oxan-4-ylmethyl)-1H-indol-5-yl]acetamide]
189	Cc1cnc(C(NC(=O)C2(c3ccc4c(c3)OCS(=O)(=O)N4)CC2)c2ccc(C)o2)c(C)c1 (stereo not shown) (as salt: HCl) [Cpd. 153, N-[(3,5-dimethylpyridin-2-yl)(5-methylfuran-2-yl)methyl]-1-(2,2-dioxo-1,3-dihydro-4,2,1-benzoxathiazin-6-yl)cyclopropane-1-carboxamide]
85	Cc1ccc(C(NC(=O)Cc2ccc3ccn(C(=O)N4CCOCC4)c3c2)c2ccc(C)o2)c(N2CCCCC2)c1 (stereo not shown) (as salt: HCl) [Cpd. 114, N-{[4-methyl-2-(piperidin-1-yl)phenyl](5-methylfuran-2-yl)methyl}-2-[1-(morpholine-4-carbonyl)-1H-indol-6-yl]acetamide]
85	Cc1ccc(C(NC(=O)C2(c3ccc4c(c3)CS(=O)(=O)N4CC3CCOCC3)CC2)c2ccc(C)o2)c(Br)c1 (stereo not shown) (as salt: HCl) [Cpd. 163, N-[(2-bromo-4-methylphenyl)(5-methylfuran-2-yl)methyl]-1-[1-(oxan-4-ylmethyl)-2,2-dioxo-1,3-dihydro-2,1-benzothiazol-5-yl]cyclopropane-1-carboxamide]
51	Cc1ccc(C(NC(=O)C2(c3ccc4c(c3)OCO4)CC2)c2ccc(C)o2)c(N2CCCCC2)c1 (stereo not shown) (as salt: HCl) [Cpd. 164, 1-(2H-1,3-benzodioxol-5-yl)-N-{[4-methyl-2-(piperidin-1-yl)phenyl](5-methylfuran-2-yl)methyl}cyclopropane-1-carboxamide]
90	Cc1ccc(C(NC(=O)C2(c3ccc4c(ccn4CCC(=O)O)c3)CC2)c2ccc(C)o2)c(N2CCCCC2)c1 (stereo not shown) (as salt: sodium) [Cpd. 154, 3-{5-[1-({[4-methyl-2-(piperidin-1-yl)phenyl](5-methylfuran-2-yl)methyl}carbamoyl)cyclopropyl]-1H-indol-1-yl}propanoic acid]
76	Cc1ccc(C(NC(=O)C2(c3ccc4c(c3)CS(=O)(=O)N4CC3CCOCC3)CC2)c2ccc(C)o2)c(C)c1 (stereo not shown) (as salt: HCl) [Cpd. 157, N-[(2,4-dimethylphenyl)(5-methylfuran-2-yl)methyl]-1-[1-(oxan-4-ylmethyl)-2,2-dioxo-1,3-dihydro-2,1-benzothiazol-5-yl]cyclopropane-1-carboxamide]
96	Cc1ccc(C(NC(=O)C2(c3ccc4c(c3)OCS(=O)(=O)N4)CC2)c2ccc(C)o2)c(C)c1 (stereo not shown) (as salt: HCl) [Cpd. 124, N-[(2,4-dimethylphenyl)(5-methylfuran-2-yl)methyl]-1-(2,2-dioxo-1,3-dihydro-4,2,1-benzoxathiazin-6-yl)cyclopropane-1-carboxamide]
87	Cc1ccc(C(NC(=O)C2(c3ccc4c(c3)CS(=O)(=O)N4CC3CCOCC3)CC2)c2ccc(C)o2)c(N2CCCCC2)c1 (stereo not shown) (as salt: HCl) [Cpd. 162, N-{[4-methyl-2-(piperidin-1-yl)phenyl](5-methylfuran-2-yl)methyl}-1-[1-(oxan-4-ylmethyl)-2,2-dioxo-1,3-dihydro-2,1-benzothiazol-5-yl]cyclopropane-1-carboxamide]
57	COc1ccc(C(NC(=O)Cc2ccc3c(ccn3CCC(=O)OC(C)(C)C)c2)c2ccc(C)o2)c(N2CCCCCC2)c1 (stereo not shown) (as salt: HCl) [Cpd. 110, tert-butyl 3-{5-[({[2-(azepan-1-yl)-4-methoxyphenyl](5-methylfuran-2-yl)methyl}carbamoyl)methyl]-1H-indol-1-yl}propanoate]
72	Cc1ccc(C(NC(=O)C2(c3ccc4c(c3)CC(=O)N4C)CC2)c2ccc(C)o2)c(C)c1 (stereo not shown) (as salt: HCl) [Cpd. 130, N-[(2,4-dimethylphenyl)(5-methylfuran-2-yl)methyl]-1-(1-methyl-2-oxo-2,3-dihydro-1H-indol-5-yl)cyclopropane-1-carboxamide]

More lines, now with the values behind:

SMILES	melting point [°C]
Cc1ccc(C(NC(=O)C2(c3ccc4c(c3)CN(S(C)(=O)=O)C4)CC2)c2ccc(C)o2)c(C)c1 (stereo not shown) (as salt: HCl) [Cpd. 65, N-[(2,4-dimethylphenyl)(5-methylfuran-2-yl)methyl]-1-(2-methanesulfonyl-2,3-dihydro-1H-isoindol-5-yl)cyclopropane-1-carboxamide]	67
Cc1ccc(C(NC(=O)C2(c3ccc4c(c3)CN(S(C)(=O)=O)C4)CC2)c2ccc(C)o2)c(N(C)C)c1 (stereo not shown) (as salt: HCl) [Cpd. 76, N-{[2-(dimethylamino)-4-methylphenyl](5-methylfuran-2-yl)methyl}-1-(2-methanesulfonyl-2,3-dihydro-1H-isoindol-5-yl)cyclopropane-1-carboxamide]	70
Cc1ccc(C(NC(=O)Cc2ccc3c(c2)CN(S(C)(=O)=O)C3)c2ccc(Cl)o2)c(N2CCCCC2)c1 (stereo not shown) (as salt: HCl) [Cpd. 79, N-[(5-chlorofuran-2-yl)[4-methyl-2-(piperidin-1-yl)phenyl]methyl]-2-(2-methanesulfonyl-2,3-dihydro-1H-isoindol-5-yl)acetamide]	143
Cc1ccc(C(NC(=O)Cc2ccc3c(c2)C(O)C(=O)N3)c2ccc(C)o2)c(N2CCCCC2)c1 (stereo not shown) (as salt: sodium) [Cpd. 46, 2-(3-hydroxy-2-oxo-2,3-dihydro-1H-indol-5-yl)-N-{[4-methyl-2-(piperidin-1-yl)phenyl](5-methylfuran-2-yl)methyl}acetamide]	110
CCSc1nc2cc(CC(=O)NC(c3ccccc3)c3ccc(C)cc3Br)ccc2[nH]1 (stereo not shown) (as salt: hydrochloride) [Cpd. 92, N-[(2-bromo-4-methylphenyl)(phenyl)methyl]-2-[2-(ethylsulfanyl)-1H-1,3-benzodiazol-5-yl]acetamide]	103
Cc1ccc(C(NC(=O)C2(c3ccc4c(c3)CC(=O)N4)CC2)c2ccc(Cl)o2)c(C)c1 (stereo not shown) (as salt: HCl) [Cpd. 86, N-[(5-chlorofuran-2-yl)(2,4-dimethylphenyl)methyl]-1-(2-oxo-2,3-dihydro-1H-indol-5-yl)cyclopropane-1-carboxamide]	78
Cc1ccc(C(NC(=O)Cc2ccc3[nH]c(C)nc3c2)c2ccccc2)c(N2CCCC2)c1 (stereo not shown) (as salt: HCl) [Cpd. 82, 2-(2-methyl-1H-1,3-benzodiazol-5-yl)-N-{[4-methyl-2-(pyrrolidin-1-yl)phenyl](phenyl)methyl}acetamide]	132
Cc1ccc(C(NC(=O)Cc2ccc3c(c2)C(=O)CC3)c2ccc(C)o2)c(N2CCCCC2)c1 (stereo not shown) (as salt: HCl) [Cpd. 67, N-{[4-methyl-2-(piperidin-1-yl)phenyl](5-methylfuran-2-yl)methyl}-2-(3-oxo-2,3-dihydro-1H-inden-5-yl)acetamide]	71
Cc1ccc(C(NC(=O)Cc2ccc3[nH]cc(C(=O)CS(C)(=O)=O)c3c2)c2ccc(C)o2)c(Br)c1 (stereo not shown) (as salt: HCl) [Cpd. 104, N-[(2-bromo-4-methylphenyl)(5-methylfuran-2-yl)methyl]-2-[3-(2-methanesulfonylacetyl)-1H-indol-5-yl]acetamide]	206
Cc1ccc(C(NC(=O)Cc2ccc3[nH]cc(C(=O)CS(C)(=O)=O)c3c2)c2ccc(C)o2)c(C)c1 (stereo not shown) (as salt: HCl) [Cpd. 107, N-[(2,4-dimethylphenyl)(5-methylfuran-2-yl)methyl]-2-[3-(2-methanesulfonylacetyl)-1H-indol-5-yl]acetamide]	213
Cc1ccc(C(NC(=O)Cc2ccc3[nH]cc(CCS(C)(=O)=O)c3c2)c2ccc(C)o2)c(N2CCCCC2)c1 (stereo not shown) (as salt: HCl) [Cpd. 98, 2-[3-(2-methanesulfonylethyl)-1H-indol-5-yl]-N-{[4-methyl-2-(piperidin-1-yl)phenyl](5-methylfuran-2-yl)methyl}acetamide]	107
Cc1ccc(C(NC(=O)Cc2ccc3[nH]c(N4CCOCC4)nc3c2)c2ccc(C)o2)c(N2CCCCC2)c1 (stereo not shown) (as salt: HCl) [Cpd. 93, N-{[4-methyl-2-(piperidin-1-yl)phenyl](5-methylfuran-2-yl)methyl}-2-[2-(morpholin-4-yl)-1H-1,3-benzodiazol-5-yl]acetamide]	125
Cc1ccc(C(NC(=O)Cc2ccc3c(c2)CS(=O)(=O)C3)c2ccc(C)o2)c(N2CCCCC2)c1 (stereo not shown) (as salt: HCl) [Cpd. 78, 2-(2,2-dioxo-1,3-dihydro-2-benzothiophen-5-yl)-N-{[4-methyl-2-(piperidin-1-yl)phenyl](5-methylfuran-2-yl)methyl}acetamide]	87
Cc1ccc(C(NC(=O)C2(c3ccc4c(c3)CS(=O)(=O)C4)CC2)c2ccc(C)o2)c(C)c1 (stereo not shown) (as salt: HCl) [Cpd. 74, N-[(2,4-dimethylphenyl)(5-methylfuran-2-yl)methyl]-1-(2,2-dioxo-1,3-dihydro-2-benzothiophen-5-yl)cyclopropane-1-carboxamide]	74
